{"source": "patent US9278163B2", "about": "“Implantable polymeric device for sustained release of dopamine agonist” (Titan Pharmaceuticals, Inc., priority 2003, dated 2016)", "system": "MPTP-lesioned, L-DOPA-naïve cynomolgus monkeys", "test": "In vivo evaluation of implants vs pulsatile subcutaneous injections (\"ON\" status, dyskinesia)", "note": "Counter-ions that a name gives are not always drawn."}
{"smiles": "CN1CCc2cccc3c2[C@H]1Cc1ccc(O)c(O)c1-3", "note": "[apomorphine, Apomorphine HCl]", "values": [{"measurement": "minimally-effective dose to achieve \"ON\" status", "setting": "daily subcutaneous injection", "result": 0.2, "unit": "mg/kg"}, {"measurement": "time to development of dyskinesias", "setting": "daily subcutaneous injections, 0.2 mg/kg, range 7-10", "result": 8.3, "unit": "days"}, {"measurement": "development of dyskinesia", "setting": "duration of treatment up to six months for implants, daily injections 0.2 mg/kg", "result": "all animals in the pulsatile injection group developed dyskinesias"}, {"measurement": "duration of \"ON\" state after each administration", "setting": "pulsatile daily subcutaneous injections, 0.2 mg/kg", "result": "approximately 90 minutes"}]}
